The source made the active and inactive calls.
Assays:
[1] = system: Streptococcus sp. 'group A'; assay: Streptococcus pyogenes SK(-)GAS viability under kanamycin – luminescence, BacTiterGlo, confirmation, counter-screen for streptokinase expression inhibitor project, dose response (AID 1900); format: functional, organism-based
[2] = system: Streptococcus; assay: Luminescence Microorganism-Based Dose Response Follow up to Identify Compounds Cytotoxic to Streptococcus. [Related pubchem assays: 1677 (Project Summary), 1915, 1914, 1902 (Retest at Dose), 1900 (Counter Screen), 1662 (Primary HTS)]; format: functional, organism-based
[3] = target: T1, Streptokinase A (Streptococcus pyogenes serotype M1, UniProt P10520); assay: viability-normalized secreted streptokinase activity reduction – plasminogen activation absorbance, OD405, dose response (AID 1914); format: functional, Streptococcus pyogenes M1 GAS;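 also: secreted streptokinase activity via plasminogen activation per viability signal from cell pellet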
T1 sequence (P10520 whole entry): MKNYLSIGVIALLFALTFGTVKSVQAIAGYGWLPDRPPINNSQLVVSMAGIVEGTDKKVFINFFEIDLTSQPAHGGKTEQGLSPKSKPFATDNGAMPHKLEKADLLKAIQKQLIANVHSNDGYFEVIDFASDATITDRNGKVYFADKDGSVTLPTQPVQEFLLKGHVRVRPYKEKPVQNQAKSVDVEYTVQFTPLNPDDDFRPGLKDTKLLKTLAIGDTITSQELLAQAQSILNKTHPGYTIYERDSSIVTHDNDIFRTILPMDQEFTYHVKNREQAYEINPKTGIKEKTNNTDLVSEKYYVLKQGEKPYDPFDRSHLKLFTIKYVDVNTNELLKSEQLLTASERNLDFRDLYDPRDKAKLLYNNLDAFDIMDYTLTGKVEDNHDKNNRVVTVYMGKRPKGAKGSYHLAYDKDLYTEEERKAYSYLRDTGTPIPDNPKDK

[4] = system: Streptococcus; assay: GAS UMAA2166 growth inhibition – luminescence, BacTiterGlo, counter-screen for streptokinase expression inhibitor project, dose response (AID 1915); format: functional, organism-based;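 also: potency for reduction of bacterial viability or growth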
[5] = target: T2, Alkaline phosphatase, tissue-nonspecific isozyme (Homo sapiens, UniProt P05186)
T2 sequence (P05186 whole entry): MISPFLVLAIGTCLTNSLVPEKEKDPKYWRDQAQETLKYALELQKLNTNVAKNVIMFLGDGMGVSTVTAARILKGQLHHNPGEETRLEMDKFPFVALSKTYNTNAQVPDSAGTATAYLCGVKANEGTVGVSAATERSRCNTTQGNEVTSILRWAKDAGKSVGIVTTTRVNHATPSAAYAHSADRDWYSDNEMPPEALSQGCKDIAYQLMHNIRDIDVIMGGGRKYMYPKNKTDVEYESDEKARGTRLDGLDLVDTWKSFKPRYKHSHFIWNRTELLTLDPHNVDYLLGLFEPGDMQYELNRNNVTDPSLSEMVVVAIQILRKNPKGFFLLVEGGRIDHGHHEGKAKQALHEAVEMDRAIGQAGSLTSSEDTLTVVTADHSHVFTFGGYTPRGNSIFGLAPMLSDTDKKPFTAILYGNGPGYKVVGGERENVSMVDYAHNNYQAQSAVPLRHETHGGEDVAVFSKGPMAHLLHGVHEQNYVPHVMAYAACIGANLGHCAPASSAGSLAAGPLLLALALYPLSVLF

[6] = target: T3, Replicative DNA helicase DnaB (Mycobacterium tuberculosis, UniProt P9WMR3); assay: DnaB intein splicing inhibitors, dose response, biochemical, cell-free fluorescence (AID 449749); format: functional
T3 sequence (P9WMR3 whole entry): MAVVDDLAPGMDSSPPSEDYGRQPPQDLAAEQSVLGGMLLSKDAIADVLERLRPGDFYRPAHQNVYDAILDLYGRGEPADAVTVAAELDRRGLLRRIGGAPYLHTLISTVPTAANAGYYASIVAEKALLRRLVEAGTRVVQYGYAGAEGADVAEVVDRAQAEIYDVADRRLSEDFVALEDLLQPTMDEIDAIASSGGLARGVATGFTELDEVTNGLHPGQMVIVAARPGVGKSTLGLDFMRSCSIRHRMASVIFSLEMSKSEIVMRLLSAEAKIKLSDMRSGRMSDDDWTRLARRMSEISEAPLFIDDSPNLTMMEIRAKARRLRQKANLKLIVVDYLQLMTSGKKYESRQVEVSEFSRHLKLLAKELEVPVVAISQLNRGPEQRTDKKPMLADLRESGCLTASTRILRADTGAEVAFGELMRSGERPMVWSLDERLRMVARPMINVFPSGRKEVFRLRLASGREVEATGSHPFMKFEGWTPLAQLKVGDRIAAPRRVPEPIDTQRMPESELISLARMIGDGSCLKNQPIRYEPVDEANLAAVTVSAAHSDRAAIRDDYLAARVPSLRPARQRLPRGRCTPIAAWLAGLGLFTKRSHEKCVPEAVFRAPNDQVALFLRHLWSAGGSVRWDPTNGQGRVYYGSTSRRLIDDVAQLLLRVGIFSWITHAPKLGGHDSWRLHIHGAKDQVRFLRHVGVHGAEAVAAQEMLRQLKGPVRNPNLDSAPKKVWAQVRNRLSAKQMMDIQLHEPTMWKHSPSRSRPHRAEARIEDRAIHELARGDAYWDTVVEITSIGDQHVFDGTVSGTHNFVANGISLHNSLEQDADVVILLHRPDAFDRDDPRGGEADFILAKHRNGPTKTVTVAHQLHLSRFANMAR

[7] = target: T4, Protein RecA (Mycobacterium tuberculosis, UniProt P9WHJ3); assay: Fluorescence Cell-Free Homogeneous Dose Retest to Identify Inhibitors of RecA-Intein Splicing Activity. [Related pubchem assays (depositor defined):AID2097, AID2223, AID489010, AID492950]; format: functional
T4 sequence (P9WHJ3 whole entry): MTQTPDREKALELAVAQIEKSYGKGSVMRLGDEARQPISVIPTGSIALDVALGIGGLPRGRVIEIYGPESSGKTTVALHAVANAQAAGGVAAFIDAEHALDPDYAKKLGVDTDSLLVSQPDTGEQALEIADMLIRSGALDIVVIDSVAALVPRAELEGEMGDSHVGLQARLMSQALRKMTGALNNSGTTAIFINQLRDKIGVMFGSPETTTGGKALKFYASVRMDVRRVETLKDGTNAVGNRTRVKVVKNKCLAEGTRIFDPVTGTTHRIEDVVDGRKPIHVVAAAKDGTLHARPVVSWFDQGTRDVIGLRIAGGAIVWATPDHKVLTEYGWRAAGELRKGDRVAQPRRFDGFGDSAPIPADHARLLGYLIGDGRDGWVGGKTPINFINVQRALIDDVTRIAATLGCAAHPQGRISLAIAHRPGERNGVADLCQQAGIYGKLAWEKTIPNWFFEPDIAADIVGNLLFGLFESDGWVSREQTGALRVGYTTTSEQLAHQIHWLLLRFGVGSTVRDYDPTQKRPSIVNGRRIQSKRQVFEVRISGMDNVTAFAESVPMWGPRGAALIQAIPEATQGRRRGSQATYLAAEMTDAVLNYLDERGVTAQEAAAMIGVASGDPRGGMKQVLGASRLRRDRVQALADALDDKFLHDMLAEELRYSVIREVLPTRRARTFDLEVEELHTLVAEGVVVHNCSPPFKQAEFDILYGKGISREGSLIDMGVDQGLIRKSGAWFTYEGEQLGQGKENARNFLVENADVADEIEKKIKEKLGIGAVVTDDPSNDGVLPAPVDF

[8] = target: T5, Neuropeptides B/W receptor type 1 (Homo sapiens, UniProt P48145); assay: Fluorescence-based dose response cell-based high throughput screening assay to identify antagonists of the G-protein coupled receptor 7 (GPR7). [Related pubchem assays: 1952 (Screening assay (GPR7 antagonists).), 1880 (Summary AID.)]; format: functional
T5 sequence (P48145 whole entry): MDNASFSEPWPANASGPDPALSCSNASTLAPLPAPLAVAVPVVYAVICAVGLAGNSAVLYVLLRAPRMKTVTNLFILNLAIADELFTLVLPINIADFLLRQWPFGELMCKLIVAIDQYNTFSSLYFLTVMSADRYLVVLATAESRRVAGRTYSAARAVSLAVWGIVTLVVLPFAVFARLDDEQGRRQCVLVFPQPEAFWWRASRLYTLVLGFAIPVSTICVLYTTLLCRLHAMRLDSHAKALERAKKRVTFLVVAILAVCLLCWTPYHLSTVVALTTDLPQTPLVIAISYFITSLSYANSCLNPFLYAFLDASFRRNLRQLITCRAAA

[9] = target: Melanin-concentrating hormone receptor 1 (Homo sapiens, UniProt Q99705); assay: Fluorescence-based counterscreen for antagonists of the G-protein coupled receptor 7 (GPR7): cell-based high throughput dose response assay to identify antagonists of the melanin-concentrating hormone receptor 1 (MCHR1).; format: functional
[10] = luciferase reporter signal suppression in cells – H4 neuroglioma cells, luminescence, dose response (AID 1990); format: functional, cell-based
[11] = system: BJ; assay: BJ-TERT fibroblast viability loss – cell-based, RAS-independent, luminescence, dose response (AID 1933); format: functional; conditions: Homo sapiens
[12] = Luminescence Cell-Based Dose Response HTS to Identify Inhibitors of 5'UTR Stem-Loop Driven Prion Protein mRNA Translation in H4 Neuroglioblastoma Cells. [Related pubchem assays: 1827 (Project Summary), 1813 (Primary HTS)]; format: functional
[13] = alpha-synuclein stem-loop luciferase translation blockers – H4 neuroglioma cells, luminescence, confirmation (AID 1988); format: functional, cell-based
[14] = system: BJ; assay: cells; format: functional, cell-based; conditions: Homo sapiens
[15] = Luminescence-based dose response cell-based high throughput screening assay for cytotoxic compounds using the IEC-6 intestinal epithelial cell line. [Related pubchem assays: 1858 (Summary AID.), 1825 (Counterscreen.), 1907 (Confirmation screen.)]; format: functional
[16] = system: BJ; assay: BJ-TERT-LT-ST fibroblast viability loss – cell-based, RAS-independent, luminescence, dose response (AID 1935); format: functional; conditions: Homo sapiens;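 also: BJ fibroblasts immortalized with TERT plus LT and ST oncogenes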
[17] = DRD fibroblast viability loss – cell-based, non-viral oncogenic, luminescence, dose response (AID 1934); format: functional; conditions: Homo sapiens
[18] = HEK-293T viability loss after treatment – luminescence, T-cell screen hits, cytotoxicity control for TCR NF-kB inhibitor project, dose response (AID 489026); format: functional, cell-based;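 also: cells exposed to compound about 14 hours before the viability readout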
[19] = system: BJ; assay: growth inhibition of engineered Ras-driven BJ cells – cell-based, alamar blue fluorescence, cherrypicked samples, dose response (AID 2631); format: functional; conditions: Homo sapiens;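 also: confirmatory dose-response assay in RAS-dependent BJ fibroblasts engineered with TERT, LT and ST, with cytotoxicity read by fluorescence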
[20] = target: Paired box protein Pax-8 (Homo sapiens, UniProt Q06710); assay: PAX8 transcriptional activity inhibition in RMG-I – RMG-I cells, luciferase, cherry-pick, dose response (AID 687027); format: functional, cell-based;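 also: luciferase reporter driven by Pax8 target thyroperoxidase promoter measured by SteadyGlo luminescence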
[21] = target: Lysosomal acid glucosylceramidase (Homo sapiens, UniProt P04062); assay: Dose response cell-based high throughput screening assay to identify enhancers of beta-glucosidase activity. [Related pubchem assays: 784 ]; format: functional
[22] = M. tuberculosis H37Rv growth inhibitors, H37Rv strain (AID 1626); format: functional
[23] = target: Peroxisome proliferator-activated receptor gamma/Nuclear receptor coactivator 2 (Homo sapiens, UniProt P37231); format: functional;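 also: agonist potency for raising coactivator recruitment to the receptor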
[24] = target: Peroxisome proliferator-activated receptor gamma/Nuclear receptor coactivator 1 (Homo sapiens, UniProt P37231); format: functional;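 also: agonist potency as compounds enhance coactivator SRC-1 recruitment to PPARgamma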
[25] = target: Peroxisome proliferator-activated receptor gamma/Nuclear receptor coactivator 3 (Homo sapiens, UniProt P37231); format: functional;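 also: agonist potency for raising coactivator recruitment to the receptor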
[26] = target: Beta-galactosidase (Escherichia coli, UniProt Q8VNN2); assay: Dose response counterscreen for EBI2 assay utilizing the enzyme, b-galactosidase.; format: functional

Sequence of Lysosomal acid glucosylceramidase (P04062 whole entry): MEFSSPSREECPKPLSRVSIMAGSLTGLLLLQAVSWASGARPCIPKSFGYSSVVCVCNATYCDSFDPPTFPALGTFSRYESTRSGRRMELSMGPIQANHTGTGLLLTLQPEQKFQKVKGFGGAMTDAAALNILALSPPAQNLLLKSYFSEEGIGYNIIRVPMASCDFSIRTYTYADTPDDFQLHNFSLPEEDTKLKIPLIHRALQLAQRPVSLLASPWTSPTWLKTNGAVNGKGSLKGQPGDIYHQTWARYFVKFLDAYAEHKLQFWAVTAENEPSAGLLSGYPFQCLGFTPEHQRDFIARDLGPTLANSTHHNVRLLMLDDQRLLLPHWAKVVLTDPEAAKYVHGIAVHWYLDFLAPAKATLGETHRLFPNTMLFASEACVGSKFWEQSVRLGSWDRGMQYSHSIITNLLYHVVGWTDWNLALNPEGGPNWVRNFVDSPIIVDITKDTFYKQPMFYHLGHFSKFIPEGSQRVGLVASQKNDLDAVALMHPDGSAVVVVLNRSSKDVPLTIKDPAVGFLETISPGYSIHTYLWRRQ
Sequence of Peroxisome proliferator-activated receptor gamma/Nuclear receptor coactivator 2 (P37231 whole entry): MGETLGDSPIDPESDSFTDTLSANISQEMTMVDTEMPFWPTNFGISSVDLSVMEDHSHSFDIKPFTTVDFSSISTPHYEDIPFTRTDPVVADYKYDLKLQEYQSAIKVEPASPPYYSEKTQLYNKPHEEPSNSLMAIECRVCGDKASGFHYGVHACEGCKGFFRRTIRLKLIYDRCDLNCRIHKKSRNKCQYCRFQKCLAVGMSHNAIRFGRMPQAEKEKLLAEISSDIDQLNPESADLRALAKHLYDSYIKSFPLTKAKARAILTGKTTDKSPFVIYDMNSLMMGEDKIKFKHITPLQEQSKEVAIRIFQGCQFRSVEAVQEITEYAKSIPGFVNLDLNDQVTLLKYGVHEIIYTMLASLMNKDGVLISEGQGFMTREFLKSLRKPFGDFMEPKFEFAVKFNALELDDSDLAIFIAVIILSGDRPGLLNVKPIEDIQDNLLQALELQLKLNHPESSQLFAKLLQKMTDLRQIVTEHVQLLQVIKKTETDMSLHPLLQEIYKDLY
Sequence of Peroxisome proliferator-activated receptor gamma/Nuclear receptor coactivator 2 (Q15596 whole entry, further chain): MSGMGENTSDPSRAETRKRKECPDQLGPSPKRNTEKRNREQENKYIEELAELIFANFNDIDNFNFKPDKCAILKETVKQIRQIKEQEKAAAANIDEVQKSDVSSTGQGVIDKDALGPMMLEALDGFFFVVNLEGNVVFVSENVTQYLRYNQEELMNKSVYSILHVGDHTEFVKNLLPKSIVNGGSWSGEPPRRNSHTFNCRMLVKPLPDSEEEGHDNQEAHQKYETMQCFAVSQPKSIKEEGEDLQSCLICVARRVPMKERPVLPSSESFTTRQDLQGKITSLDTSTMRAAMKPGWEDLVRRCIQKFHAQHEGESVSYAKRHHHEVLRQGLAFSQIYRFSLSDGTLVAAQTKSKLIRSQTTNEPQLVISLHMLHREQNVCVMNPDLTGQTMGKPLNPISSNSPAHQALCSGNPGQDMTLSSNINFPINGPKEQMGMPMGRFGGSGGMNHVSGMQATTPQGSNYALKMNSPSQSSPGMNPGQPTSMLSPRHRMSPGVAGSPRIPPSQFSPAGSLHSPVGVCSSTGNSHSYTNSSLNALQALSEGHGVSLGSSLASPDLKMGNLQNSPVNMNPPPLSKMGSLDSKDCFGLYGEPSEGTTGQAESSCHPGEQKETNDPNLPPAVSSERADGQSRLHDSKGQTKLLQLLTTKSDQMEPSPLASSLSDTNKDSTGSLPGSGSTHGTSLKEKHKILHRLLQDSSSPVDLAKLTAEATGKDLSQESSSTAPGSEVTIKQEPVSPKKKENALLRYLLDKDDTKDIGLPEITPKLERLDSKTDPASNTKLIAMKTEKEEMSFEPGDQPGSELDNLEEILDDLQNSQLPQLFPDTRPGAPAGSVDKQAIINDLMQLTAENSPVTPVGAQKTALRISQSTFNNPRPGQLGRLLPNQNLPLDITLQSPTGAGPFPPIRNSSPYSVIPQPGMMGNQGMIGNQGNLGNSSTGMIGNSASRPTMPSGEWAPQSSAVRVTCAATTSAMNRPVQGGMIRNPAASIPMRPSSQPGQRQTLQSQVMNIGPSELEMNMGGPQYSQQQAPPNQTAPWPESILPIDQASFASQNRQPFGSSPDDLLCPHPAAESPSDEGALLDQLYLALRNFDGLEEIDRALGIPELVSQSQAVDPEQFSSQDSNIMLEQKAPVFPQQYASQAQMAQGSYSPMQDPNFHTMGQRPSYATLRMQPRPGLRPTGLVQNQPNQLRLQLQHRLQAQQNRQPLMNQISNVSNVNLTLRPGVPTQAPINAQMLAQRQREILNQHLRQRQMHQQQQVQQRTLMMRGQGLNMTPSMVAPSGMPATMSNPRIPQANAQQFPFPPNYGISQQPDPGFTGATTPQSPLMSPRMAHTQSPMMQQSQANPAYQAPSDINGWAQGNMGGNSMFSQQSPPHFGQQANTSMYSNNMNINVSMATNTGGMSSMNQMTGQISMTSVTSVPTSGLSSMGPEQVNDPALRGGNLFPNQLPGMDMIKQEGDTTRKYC
Sequence of Peroxisome proliferator-activated receptor gamma/Nuclear receptor coactivator 1 (P37231 whole entry): as the sequence (P37231 whole entry) above
Sequence of Peroxisome proliferator-activated receptor gamma/Nuclear receptor coactivator 1 (Q15788 whole entry, further chain): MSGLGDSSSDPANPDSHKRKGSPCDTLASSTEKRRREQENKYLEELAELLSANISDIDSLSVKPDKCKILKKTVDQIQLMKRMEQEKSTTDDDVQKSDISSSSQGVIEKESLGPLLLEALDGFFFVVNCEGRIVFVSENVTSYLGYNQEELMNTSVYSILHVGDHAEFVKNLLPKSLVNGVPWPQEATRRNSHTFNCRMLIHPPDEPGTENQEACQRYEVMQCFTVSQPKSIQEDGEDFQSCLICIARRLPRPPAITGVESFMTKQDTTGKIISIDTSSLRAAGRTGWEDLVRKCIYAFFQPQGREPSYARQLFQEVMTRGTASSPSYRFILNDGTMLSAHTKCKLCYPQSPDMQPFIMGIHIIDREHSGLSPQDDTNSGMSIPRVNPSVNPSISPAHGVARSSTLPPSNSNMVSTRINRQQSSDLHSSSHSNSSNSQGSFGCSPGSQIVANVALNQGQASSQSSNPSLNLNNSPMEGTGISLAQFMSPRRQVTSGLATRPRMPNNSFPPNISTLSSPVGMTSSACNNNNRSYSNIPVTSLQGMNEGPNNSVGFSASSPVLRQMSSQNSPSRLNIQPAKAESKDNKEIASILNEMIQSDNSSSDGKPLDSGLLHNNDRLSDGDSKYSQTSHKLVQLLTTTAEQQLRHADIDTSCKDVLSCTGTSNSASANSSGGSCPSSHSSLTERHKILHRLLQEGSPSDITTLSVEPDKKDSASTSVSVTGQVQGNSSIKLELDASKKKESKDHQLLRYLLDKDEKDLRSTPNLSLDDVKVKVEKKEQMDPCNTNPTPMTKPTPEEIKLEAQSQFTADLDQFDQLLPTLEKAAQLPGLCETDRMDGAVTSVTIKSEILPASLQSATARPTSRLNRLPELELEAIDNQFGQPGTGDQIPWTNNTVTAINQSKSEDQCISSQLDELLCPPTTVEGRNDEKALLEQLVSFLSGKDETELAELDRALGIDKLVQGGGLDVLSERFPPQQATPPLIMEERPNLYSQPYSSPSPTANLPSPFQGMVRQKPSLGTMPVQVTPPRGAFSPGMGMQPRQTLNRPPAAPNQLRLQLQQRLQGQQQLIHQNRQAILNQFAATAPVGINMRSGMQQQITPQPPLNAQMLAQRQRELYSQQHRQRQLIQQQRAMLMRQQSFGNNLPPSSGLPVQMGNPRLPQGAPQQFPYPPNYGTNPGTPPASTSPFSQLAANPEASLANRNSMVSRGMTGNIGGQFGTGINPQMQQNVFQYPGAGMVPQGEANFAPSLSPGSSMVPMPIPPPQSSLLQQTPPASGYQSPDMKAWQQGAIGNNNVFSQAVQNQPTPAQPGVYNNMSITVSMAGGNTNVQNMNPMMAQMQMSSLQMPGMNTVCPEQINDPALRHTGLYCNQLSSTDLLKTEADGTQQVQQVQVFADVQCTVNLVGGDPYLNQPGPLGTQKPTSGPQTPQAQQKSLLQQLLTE
Sequence of Melanin-concentrating hormone receptor 1 (Q99705 whole entry): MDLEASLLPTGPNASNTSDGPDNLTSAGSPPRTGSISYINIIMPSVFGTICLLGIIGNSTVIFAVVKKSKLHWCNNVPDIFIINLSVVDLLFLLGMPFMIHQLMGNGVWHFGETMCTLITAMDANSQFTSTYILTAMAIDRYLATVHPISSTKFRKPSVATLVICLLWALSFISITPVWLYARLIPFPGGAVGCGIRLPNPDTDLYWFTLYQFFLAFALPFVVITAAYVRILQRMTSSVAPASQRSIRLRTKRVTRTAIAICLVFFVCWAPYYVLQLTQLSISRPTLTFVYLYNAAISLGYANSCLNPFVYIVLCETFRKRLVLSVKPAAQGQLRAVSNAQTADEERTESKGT

## Cc1cc2oc(=O)cc(CN(C)Cc3ccccc3)c2cc1C(C)C
[1]
  EC50: 13.3 µM (active)
[2]
  EC50: > 500 µM (not active)
[3]
  EC50: 8.46 µM (active)
[4]
  EC50: > 150 µM (not active)

## CC/C(=C/c1sc2ccc(C)cc2[n+]1CCO)SC
[5]
  EC50: > 100 µM (not active)
[6]
  AC50: > 380 µM (inactive)
[7]
  EC50: 14.2 µM (active)

## O=C(NC1CCCCCCC1)C1c2ccccc2C(=O)N1Cc1ccco1 (stereo not drawn)
[8]
  IC50: > 43.8 µM (not active)
[9]
  IC50: > 43.8 µM (not active)

## COc1ccc(CCNc2nnc(Sc3nnnn3-c3ccccc3)s2)cc1OC
[10]
  EC50: 5.51 µM (active)
[11]
  EC50: 2.95 µM (active)
[12]
  EC50: 10.8 µM (active)
[13]
  EC50: 5.09 µM (active)
[14]
  EC50: 3.24 µM (active)
[15]
  IC50: 2.49 µM (active)
[16]
  EC50: 2.35 µM (inconclusive)
[17]
  EC50: 2.38 µM (active)
[18]
  IC50: > 80 µM (inactive)
[19]
  EC50: 0.616 µM (active)
[20]
  AC50: 4.21 µM (active)

## O=C(CCCn1c(=S)[nH]c2cc3c(cc2c1=O)OCO3)N1CCN(c2ncccn2)CC1
[21]
  EC50: > 50 µM (not active)

## O=C(O)C1CCCCC1C(=O)Nc1ccccc1Nc1ccccc1 (stereo not drawn)
[22]
  IC50: > 100 µM (active)

## CC(C)(C)NC(=O)CSc1nnc(-c2ccco2)n1Cc1ccco1
[21]
  EC50: > 50 µM (not active)

## COc1ccc2nc(C)cc(SCC(=O)Nc3c(C)cc(C)cc3C)c2c1
[23]
  EC50: 27.8 µM (not active)
[24]
  EC50: 55.2 µM (not active)
[25]
  EC50: > 79.4 µM (not active)
[5]
  EC50: > 100 µM (not active)

## COc1ccc2oc(C(=O)N3CCN(C(c4ccccc4)c4ccccc4)CC3)c(C)c2c1
[1]
  EC50: 32.2 µM (active)
[2]
  EC50: > 500 µM (not active)
[3]
  EC50: 4.97 µM (active)
[4]
  EC50: > 150 µM (not active)
[26]
  IC50: > 80 µM (inactive)

## Cc1ccc2[nH]c(SCC(=O)Nc3ccc4c(c3)CCC4)nc2c1
[22]
  IC50: > 100 µM (active)

Reference: ChEMBL document CHEMBL1201862, “PubChem BioAssay data set” (2004)
